Test results taken from patent US7033604B2, “Composition for topical administration” (Sucampo AG, priority 2001, dated 2006).
Marks after values point to notes of the source that are not given here.

Experiments:
[1] = tested on: Pseudomonas aeruginosa IID-1210; experiment: Anti-microbial test: viable bacterial counts in wounded rabbit cornea inoculated with Pseudomonas aeruginosa; assay type: in vivo; details: for Colony forming units per gram of cornea Mean ± SE: cornea excised 4 hours after administration, Japanese white rabbits, 6 eyes
Experimental: Single colony isolate of Pseudomonas aeruginosa IID-1210 (provided by Department of Ophthalmology, Yokohama City University School of Medicine, Japan) on NAC agar plate was inoculated in 2 mL of heart infusion broth, and kept for overnight at 37° C. One hundred microliters of the overnight culture was inoculated in 10 mL of heart infusion broth, and then grown for about 12 hours at 37° C. with shaking. Twelve Japanese white rabbits (13 weeks old, Std: JW/CSK, Japan SLC, Inc.) were anesthetized by intravenous injection of pentobarbital sodium (25 mg/kg), and then topical anesthesia was made by instillation of 0.4% oxybuprocaine hydrochloride to both eyes. The corneal wound was produced bilaterally using a 6-mm trephine and 27-gauge needle according to the method described by Hatano H et al. (Japanese Review of Clinical Ophthalmology 79: 1153, 1985). Forty microliters of the bacterial suspension prepared above was instilled onto the wounded cornea twice (Day 1, 21:00). After bacterial inoculation, the rabbits were divided into 4 groups (three rabbits-six eyes/group). Fifty microliters of each test substance or vehicle was topically applied to both eyes of each animal once 12 hours after bacterial inoculation (Day 2, 9:00). […] Four hours after administration of test substances, the animals were sacrificed with an intravenous overdose of pentobarbital sodium, eyes were enucleated, and then corneas were excised using a 6-mm trephine. After weighing, each cornea was homogenized in 1 mL of sterile physiological saline. Aliquot (0.1 mL) of each homogenate was plated on NAC agar, and incubated for 24 hours at 37° C. The colonies were then counted. All quantitative cultures were run in triplicate, and the arithmetic mean of three measurements was determined for each cornea. Results were expressed as the number of organisms (determined by measures of colony forming units [CFU]) per gram of corneal weight.

[2] = tested on: Experimental Pseudomonas keratitis; experiment: Anti-inflammatory test: slit lamp scoring of conjunctival and corneal inflammation in experimental Pseudomonas keratitis; assay type: in vivo, Japanese white rabbits; details: for Score (conjunctiva) Mean ± SE: conjunctival inflammation at 48 hours after bacterial inoculation, sum of scores; for Score (conjunctiva) Mean ± SE / Score (cornea) Mean ± SE: 6 eyes; for Score (cornea) Mean ± SE: corneal inflammation at 60 hours after bacterial inoculation, sum of corneal opacity (0–8) and corneal ulcer (0–3)
Experimental: Experimental Pseudomonas keratitis was induced for 12 Japanese white rabbits (13 weeks old, Std: JW/CSK) as described in Test Experiment 1. After bacterial inoculation, the rabbits were divided into 4 groups (three rabbits-six eyes/group). Fifty microliters of each test substance or vehicle was topically applied to both eyes of each animal 4 times a day at intervals of 4 hours beginning 12 hours after the bacterial inoculation. The test substance and vehicle were the same as those used in Test Example 1. Rabbit eyes were examined with a slit lamp biomicroscope, and severity of conjunctival inflammation at 48 hours after bacterial inoculation and corneal inflammation at 60 hours after bacterial inoculation were evaluated by assigning a numerical value to the following signs based on the method described by Kuriyama H et al. Corneal inflammation was evaluated by sums of the scores of corneal opacity (score 0–8) and corneal ulcer (score 0–3). Conjunctival inflammation was evaluated by sums of the scores of redness of palpebral conjunctival inflammation (score 0–4), edema of palpebral conjunctiva (score 0–4), nictitating membrane status (score 0–3) and discharge (score 0–3).

[3] = 0.3% ofloxacin, 50 microliters topically 4 times a day from 12 hours after inoculation
[4] = 0.06% FK-506, 50 microliters topically 4 times a day from 12 hours after inoculation

Row | Compound | Colony forming units per gram of cornea Mean ± SE ([1]; 0.3% ofloxacin, 50 microliters topically to both eyes once 12 hours after bacterial inoculation) | Score (conjunctiva) Mean ± SE [2, 3] | Score (cornea) Mean ± SE [2, 3] | Colony forming units per gram of cornea Mean ± SE ([1]; 0.06% FK-506, 50 microliters topically to both eyes once 12 hours after bacterial inoculation) | Effect on viable Pseudomonas counts (in words) ([1]; 0.06% FK-506, single topical application, compared with vehicle treatment) | Effect on conjunctival inflammation (in words) ([2]; 0.06% FK-506, 4 times a day, 48 hours after inoculation) | Effect on corneal inflammation (in words) ([2]; 0.06% FK-506, 4 times a day, 60 hours after inoculation) | Score (conjunctiva) Mean ± SE [2, 4] | Score (cornea) Mean ± SE [2, 4]
1 | CC1COc2c(N3CCN(C)CC3)c(F)cc3c(=O)c(C(=O)O)cn1c23 (stereo not drawn) [ofloxacin] | 0^a),b) Colony forming units per gram of cornea | 6.0 ± 0.5 | 2.1 ± 0.4^a) |  |  |  |  |  | 
2 | C=CCC1/C=C(\C)CC(C)CC(OC)C2OC(O)(C(=O)C(=O)N3CCCCC3C(=O)OC(/C(C)=C/C3CCC(O)C(OC)C3)C(C)C(O)CC1=O)C(C)CC2OC (stereo not drawn) [FK-506, 17-allyl-1,14-dihydroxy-12-[2-(4-hydroxy-3-methoxycyclohexyl)-1-methylvinyl]-23,25-dimethoxy-13,19,21,27-tetramethyl-11,28-dioxa-4-azatricyclo [22.3.1.0^4,9]octacos-18-ene-2,3,10,16-tetraone] |  |  |  | 31225 ± 7204 Colony forming units per gram of cornea | decreased the viable Pseudomonas counts as compared with vehicle treatment, but not significantly | tended to decrease the conjunctival inflammation | tended to decrease the corneal inflammation | 6.7 ± 0.4 | 6.0 ± 0.0
